Reference: ChEMBL document CHEMBL1157517, “Hepatitis C virus NS3-4A serine protease inhibitors: SAR of new P1 derivatives of SCH 503034” (Bioorg Med Chem Lett, 2008)

Assays:
[1] = Inhibition of HCV NS3 serine protease; design: species or system Hepacivirus hominis
Hepatitis C virus = assay: Antiviral activity against HCV; format: functional, Hepacivirus hominis
[2] = AUC in rat at 3 mg/kg, po; format: ADME, organism-based; design: dose 3 mg/kg, route oral; settings: plasma

| Compound | Ki [1] | EC90 (Hepatitis C virus) | AUC [2] |
| --- | --- | --- | --- |
| CC(C)(C)NC(=O)N[C@H](C(=O)N1C[C@H]2[C@@H]([C@H]1C(=O)NC(CC1(O)CCC1)C(=O)C(N)=O)C2(C)C)C(C)(C)C (stereo partly drawn) | 163 µM |  |  |
| CCC(F)(F)CC(NC(=O)[C@@H]1[C@@H]2[C@H](CN1C(=O)[C@@H](NC(=O)NC(C)(C)C)C(C)(C)C)C2(C)C)C(=O)C(N)=O (stereo partly drawn) | 0.36 µM |  |  |
| CC(C)(C)NC(=O)N[C@H](C(=O)N1C[C@H]2[C@@H]([C@H]1C(=O)NC(CCC(F)(F)F)C(=O)C(N)=O)C2(C)C)C(C)(C)C (stereo partly drawn) | 0.065 µM | 0.6 µM | 0.02 µM·h |
| CC(C)(C)NC(=O)N[C@H](C(=O)N1C[C@H]2[C@@H]([C@H]1C(=O)NC(CCCC(F)(F)F)C(=O)C(N)=O)C2(C)C)C(C)(C)C (stereo partly drawn) | 1.3 µM |  |  |
| CC(C)(C)NC(=O)N[C@H](C(=O)N1C[C@H]2[C@@H]([C@H]1C(=O)NC(CC1(F)CCC1)C(=O)C(N)=O)C2(C)C)C(C)(C)C (stereo partly drawn) | 0.21 µM |  | 0.31 µM·h |

Second part, the compound after the results:

| Ki [1] | EC90 (Hepatitis C virus) | AUC [2] | Compound |
| --- | --- | --- | --- |
| 0.098 µM | 1.2 µM | 1.1 µM·h | CC(C)(C)NC(=O)N[C@H](C(=O)N1C[C@H]2[C@@H]([C@H]1C(=O)NC(CC1CC(F)(F)C1)C(=O)C(N)=O)C2(C)C)C(C)(C)C (stereo partly drawn) |
| 0.12 µM |  |  | CC(C)(C)NC(=O)N[C@H](C(=O)N1C[C@H]2[C@@H]([C@H]1C(=O)NC(CC(F)(F)F)C(=O)C(N)=O)C2(C)C)C(C)(C)C (stereo partly drawn) |
| 0.23 µM |  |  | CC(F)(F)CC(NC(=O)[C@@H]1[C@@H]2[C@H](CN1C(=O)[C@@H](NC(=O)NC(C)(C)C)C(C)(C)C)C2(C)C)C(=O)C(N)=O (stereo partly drawn) |
| 0.16 µM |  |  | CC(C)(C)NC(=O)N[C@H](C(=O)N1C[C@H]2[C@@H]([C@H]1C(=O)NC(C[C@H]1C[C@@H](O)C1)C(=O)C(N)=O)C2(C)C)C(C)(C)C (stereo partly drawn) |
| 0.05 µM | 1 µM |  | CC(C)(C)NC(=O)N[C@H](C(=O)N1C[C@H]2[C@@H]([C@H]1C(=O)NC(CC1CC1(F)F)C(=O)C(N)=O)C2(C)C)C(C)(C)C (stereo partly drawn) |
| 0.014 µM | 0.35 µM |  | CC(C)(C)NC(=O)N[C@H](C(=O)N1C[C@H]2[C@@H]([C@H]1C(=O)NC(CC1CCC1)C(=O)C(N)=O)C2(C)C)C(C)(C)C (stereo partly drawn) [BOCEPREVIR] |
